From US6924414B2, “Muir-torre-like syndrome in Fhit deficient mice” (Thomas Jefferson University, priority 2000, dated 2005)
Several values for one entry are separate records, joined by “and”; a condition that tells them apart may be missing. Equal entries are not always repeated. Entries after “also recorded” stand apart in the source; their conditions may differ. Marks after values point to notes of the source that are not given here.

How the values were obtained:
[1] = test system: Fhit exons 4 through 9; test: Fhit sequence analysis of NMBA-induced tumors; parameters: species or system mouse; conditions: DNA from sebaceous tumors of mice 21, 27, 31 and squamous papillomas of mice 25, 27
From the text: Primer pairs flanking each of the human FHIT exons (Druck et al., […], Cancer Res. 57:504-512) and the mouse FHIT coding exons were used in PCR amplification of DNA from MTS cases or mouse tumors, respectively. Primer pairs surrounding the mouse FHIT exons were previously published (Pekarsky et al., 1998, Cancer Res. 58:3401-3408) for exons 5 and 6 or newly designed […]
The products were purified with a PCR purification kit (Qiagen) before sequencing using Taq DyeDeoxy Terminator Cycle Sequencing Kits (ABI). Sequencing reaction products were electrophoresed and recorded on a 377 DNA sequencer (ABI). Southern Blot Analysis

[2] = test system: Fhit +/+ mice; test: Carcinogenicity study: NMBA tumor induction in Fhit +/+ mice; format: in vivo, mouse (C57BL/6J X 129/SvJ) F1
Protocol: (§1) (C57BL/6J X 129/SvJ) F1 mice (B6129F1s) that were Fhit +/+ or +/− were produced. 18 Fhit +/+ and 22 Fhit +/− mice (30-46 weeks) were given 8 intragastric doses of NMBA (Ash Stevens, Detroit, Mich.) over the course of 3 weeks at 2 mg/kg body weight. About half the mice were sacrificed six weeks after the final NMBA dose and the remaining mice at ten weeks. Tumor incidence differences were analyzed by two-tailed Fisher's exact test (Armitage and Berry, 1987, Statistical Methods in Medical Research, 2nd Ed., Blackwell Scientific, Oxford). For comparison, four untreated Fhit +/− mice (54-59 weeks old) and one untreated Fhit +/+ mouse (59 weeks old) were similarly autopsied. At autopsy, whole esophagi and stomachs were removed and opened longitudinally. Other tissues with apparent tumors were also examined. The number of animals bearing tumors in the esophagus, forestomach, squamocolumnar junction with the glandular stomach (SCJ) and other tissues were scored. Tissues were fixed in buffered formalin and examined histologically after hematoxylin and eosin (H&E) staining for the presence of hyperkeratosis, parakeratosis, dysplasia, papillomas, adenomas and carcinomas.

[3] = test system: esophageal and forestomach tumors; conditions: administered by gavage or in the drinking water; cited from earlier work
[4] = test system: Fhit +/− mice; test: Carcinogenicity study: NMBA tumor induction in Fhit +/− mice; format: in vivo, mouse (C57BL/6J X 129/SvJ) F1
Protocol: as §1

[5] = Fhit +/+, individual mice, 10 weeks after NMBA, T = tumors
[6] = Fhit +/−, individual mice, 10 weeks after NMBA, T = tumors

Q: Which results are given for N-nitrosomethylbenzylamine [NMBA]?
A: NMBA-induced mutations within Fhit exons 4 through 9 [1]: No mutations were detected; Fraction of tumor bearing animals, Fore stomach ([2]; 6 wk post-treatment, Fhit +/+): 1/10; Fraction of tumor bearing animals, SCJ ([2]; 6 wk post-treatment, Fhit +/+): 0/10; Tumor Bearing Mice ([2]; 6 wk post-treatment, Fhit +/+): 2/10; Fraction of tumor bearing animals, Esoph ([2]; 6 wk post-treatment, Fhit +/+, number of mice with tumors/number of mice, 8 intragastric doses 2 mg/kg): 1/10; Fraction of tumor bearing animals, Esoph ([2]; 10 wk post-treatment, Fhit +/+): 0/8; Fraction of tumor bearing animals, Fore stomach ([2]; 10 wk post-treatment, Fhit +/+): 1/8; Fraction of tumor bearing animals, SCJ ([2]; 10 wk post-treatment, Fhit +/+): 1/8; Fraction of tumor bearing animals, Sebaceous ([2]; 10 wk post-treatment, Fhit +/+): 0/8; Tumor Bearing Mice ([2]; 10 wk post-treatment, Fhit +/+): 2/8; Extragastric tumors ([2]; Fhit +/+ mice): not observed; Comments (by histology) ([2]; Fhit +/+, individual mice, 10 weeks after NMBA): sq papillomas; also recorded: papillary hyperplasia, esophagus; also recorded: adenoma; Phenotype Esoph. [2, 5]: thick; Phenotype Forestomach [2, 5]: thick; also recorded: sm. T; Phenotype SCJ [2, 5]: thick and 7T+3 mm; body wt. (amount of wt. change during the experiment) ([2]; Fhit +/+, individual mice, 10 weeks after NMBA, given with ↑): ↑1 g and ↑4 g (3×) and ↑6 g and ↑3 g (2×) and ↑2 g; Mice developing sebaceous tumors ([2]; NMBA treated Fhit +/+ mice): none; Esophageal squamous papilloma by histological examination ([2]; six weeks after NMBA, Fhit +/+): 1/10; Mice showing a very small tumor of the esophagus or forestomach on inspection ([2]; six weeks after treatment, Fhit +/+): two of ten; Mice with tumors ([2]; six weeks post NMBA, Fhit +/+, histology): 20%; Tumor burden (mice exhibiting tumors) ([2]; ten weeks post NMBA, Fhit +/+): 25%; Mice exhibiting tumors on inspection ([2]; ten weeks, Fhit +/+): two of eight; Tumor induction [3]: induce both esophageal and forestomach tumors; Fraction of tumor bearing animals, Fore stomach ([4]; 6 wk post-treatment, Fhit +/−): 5/10; Fraction of tumor bearing animals, SCJ ([4]; 6 wk post-treatment, Fhit +/−): 4/10; Tumor Bearing Mice ([4]; 6 wk post-treatment, Fhit +/−): 7/10; Fraction of tumor bearing animals, Esoph ([4]; 6 wk post-treatment, Fhit +/−, 1 esophagus showed dysplasia): 0/10^b; Fraction of tumor bearing animals, Esoph ([4]; 10 wk post-treatment, Fhit +/−): 2/12; Fraction of tumor bearing animals, Fore stomach ([4]; 10 wk post-treatment, Fhit +/−): 10/12; Fraction of tumor bearing animals, SCJ ([4]; 10 wk post-treatment, Fhit +/−): 5/12; Fraction of tumor bearing animals, Sebaceous ([4]; 10 wk post-treatment, Fhit +/−): 7/12; Tumor Bearing Mice ([4]; 10 wk post-treatment, Fhit +/−): 12/12; Comments (by histology) ([4]; Fhit +/−, individual mice, 10 weeks after NMBA): sq. carcinoma forestomach, sq. pap. SCJ; also recorded: sq. pap. forestomach, Barretts-like gastric mucosa SCJ; also recorded: sq. pap. and adenoma forestomach; also recorded: sq. pap. and sq. carcinoma forestomach; also recorded: sq. pap. esoph, forestomach, SCJ; also recorded: sebaceous adnexal tumor; also recorded: sq. pap. esoph and forestomach, seb. tumor; also recorded: sq. pap. forestomach, sebaccous tumor; also recorded: hyperplastic gastric mucosa, SCJ sq. pap. seb. tumor; also recorded: forestomach sq. papillomas; sebaceous tumor; Phenotype Forestomach [4, 6]: 2T and few sm. T and multiple T (3×) and T.2-3 mm; Phenotype SCJ [4, 6]: few T; also recorded: multiple T; body wt. (amount of wt. change during the experiment) ([4]; Fhit +/−, individual mice, 10 weeks after NMBA, given with ↑): ↑3 g (2×) and ↑2 g (3×) and ↑4 g (4×) and ↑8 g (2×) and ↑6 g; Mice with large (>5×5 mm) sebaceous tumors ([4]; NMBA treated Fhit +/− mice under 1 yr. of age): 5 of 12; Mice with one or more subcutis tumors in abdominal, mammary or axial area on autopsy ([4]; autopsy at 10 weeks, Fhit +/−): more than 50%; Mice developing a spectrum of visceral and skin tumors ([4]; by ten weeks after NMBA exposure, Fhit +/−): all; Mice showing tumors in the subcutis of the abdomen (visible before autopsy) ([4]; by ten weeks after the final dose, Fhit +/−): three; Mice showing one or more small tumors on inspection of whole esophagus and stomach ([4]; six weeks after treatment, Fhit +/−): seven of ten; Mice with tumors ([4]; six weeks post NMBA, Fhit +/−, histology): 70%; Tumor burden (mice exhibiting tumors) ([4]; ten weeks post NMBA, Fhit +/−): 100%; Mice showing apparent tumors in forestomach, squamocolumnar junction and/or other tissues ([4]; ten weeks, Fhit +/−, inspection): eleven of twelve
